Each molecule was assayed against T1, human PTHR1 receptor (Homo sapiens, UniProt Q03431) (assay: Competitive antagonist binding assay for hPTH-R1 (radioactive competition binding, SPA beads)). Conditions: human PTHR1 membranes, [125I]-[Nle8,18,Tyr34]-PTH(1-34) 0.2 nM, 90 minutes at room temperature; read-out: hPTHR1 Ki.
T1 construct: purchased Eurofins HTS030M
T1 sequence (Q03431 27-593): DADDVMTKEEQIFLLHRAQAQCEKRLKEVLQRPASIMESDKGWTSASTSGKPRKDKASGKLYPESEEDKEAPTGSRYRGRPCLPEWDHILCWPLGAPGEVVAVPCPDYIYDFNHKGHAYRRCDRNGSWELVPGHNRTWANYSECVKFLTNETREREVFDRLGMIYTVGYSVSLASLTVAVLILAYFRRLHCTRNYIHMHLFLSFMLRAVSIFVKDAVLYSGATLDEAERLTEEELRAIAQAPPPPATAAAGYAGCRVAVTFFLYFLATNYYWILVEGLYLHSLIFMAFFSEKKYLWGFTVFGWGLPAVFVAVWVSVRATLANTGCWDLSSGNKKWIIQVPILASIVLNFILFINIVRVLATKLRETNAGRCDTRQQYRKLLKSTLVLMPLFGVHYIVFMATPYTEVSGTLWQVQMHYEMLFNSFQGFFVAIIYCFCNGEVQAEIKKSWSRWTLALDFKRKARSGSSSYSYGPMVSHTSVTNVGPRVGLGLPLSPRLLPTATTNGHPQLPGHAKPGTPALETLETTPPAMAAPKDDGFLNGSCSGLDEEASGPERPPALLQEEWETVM
Procedure, shortened: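 Displacement of 0.2 nM radioiodinated [Nle8,18,Tyr34]-PTH(1-34) from membrane-bound human PTHR1 measured by scintillation proximity after 90 min at room temperature. Compounds typically 0-10,000 nM final, pH 7.4 HEPES/Mg/Ca buffer with BSA and detergent. Ki calculated from competition data.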

| Ki [nM] | Molecule |
| --- | --- |
| < 100 | CCN1C(=O)N(c2c(F)cc(NCCNCCNS(C)(=O)=O)cc2F)c2cc(C#N)ccc2-c2cc(Cl)cnc21 [1-150, N-[2-({2-[(4-{4-chloro-13-cyano-8-ethyl-9-oxo-6,8,10-triazatricyclo[9.4.0.0^2,7]pentadeca-1(11),2(7),3,5,12,14-hexaen-10-yl}-3,5-difluorophenyl)amino]ethyl}amino)ethyl]methanesulfonamide] |
| < 100 | CCN1C(=O)N(c2ccc(NCCNC3CCOCC3)cc2)c2cc(Cl)ccc2-c2cc(Cl)cnc21 [2-13, 4,13-dichloro-8-ethyl-10-[4-({2-[(oxan-4-yl)amino]ethyl}amino)phenyl]-6,8,10-triazatricyclo[9.4.0.0^2,7]pentadeca-1(11),2(7),3,5,12,14-hexaen-9-one] |
| < 100 | CCN1C(=O)N(c2c(F)cc(NCCNC[C@@H](C)O)cc2F)c2cc(C#N)ccc2-c2cc(F)cnc21 [1-203, 10-{2,6-difluoro-4-[(2-{[(2R)-2-hydroxypropyl]amino}ethyl)amino]phenyl}-8-ethyl-4-fluoro-9-oxo-6,8,10-triazatricyclo[9.4.0.0^2,7]pentadeca-1(11),2(7),3,5,12,14-hexaene-13-carbonitrile] |
| < 100 | CCN1C(=O)N(c2c(F)cc(NCCNC)cc2F)c2cc(Cl)cc(C)c2-c2cccnc21 [1-23, 13-chloro-10-(2,6-difluoro-4-{[2-(methylamino)ethyl]amino}phenyl)-8-ethyl-15-methyl-6,8,10-triazatricyclo[9.4.0.0^2,7]pentadeca-1(11),2(7),3,5,12,14-hexaen-9-one] |
| < 100 | CCN1C(=O)N(c2c(F)cc(NCCN3CCC(O)C3)cc2F)c2cc(C#N)ccc2-c2cc(Cl)cnc21 (centres unmarked) [1-164, 4-chloro-10-(2,6-difluoro-4-{[2-(3-hydroxypyrrolidin-1-yl)ethyl]amino}phenyl)-8-ethyl-9-oxo-6,8,10-triazatricyclo[9.4.0.0^2,7]pentadeca-1(11),2(7),3,5,12,14-hexaene-13-carbonitrile] |
| < 100 | CCN1C(=O)N(c2c(F)cc(NCCNCCCC(=O)O)cc2F)c2c(ccc(Cl)c2F)-c2cc(Cl)cnc21 [3-11, 4-({2-[(4-{4,13-dichloro-8-ethyl-12-fluoro-9-oxo-6,8,10-triazatricyclo[9.4.0.0^2,7]pentadeca-1(11),2(7),3,5,12,14-hexaen-10-yl}-3,5-difluorophenyl)amino]ethyl}amino)butanoic acid] |
| < 100 | CCN1C(=O)N(c2c(F)cc(NCCNC[C@H](O)CO)cc2F)c2cc(C#N)ccc2-c2cc(Cl)cnc21 [1-171, 4-chloro-10-{4-[(2-{[(2S)-2,3-dihydroxypropyl]amino}ethyl)amino]-2,6-difluorophenyl}-8-ethyl-9-oxo-6,8,10-triazatricyclo[9.4.0.0^2,7]pentadeca-1(11),2(7),3,5,12,14-hexaene-13-carbonitrile] |
| < 100 | CCN1C(=O)N(c2c(F)cc(NCCNCCCC(=O)O)cc2F)c2cc(Cl)ccc2-c2cc(F)cnc21 [1-16, 4-({2-[(4-{13-chloro-8-ethyl-4-fluoro-9-oxo-6,8,10-triazatricyclo[9.4.0.0^2,7]pentadeca-1(11),2(7),3,5,12,14-hexaen-10-yl}-3,5-difluorophenyl)amino]ethyl}amino)butanoic acid] |
| < 100 | CCCN1C(=O)N(c2c(F)cc(NCCNC)cc2F)c2cc(C#N)ccc2-c2cc(Cl)cnc21 [1-119, 4-chloro-10-(2,6-difluoro-4-{[2-(methylamino)ethyl]amino}phenyl)-9-oxo-8-propyl-6,8,10-triazatricyclo[9.4.0.0^2,7]pentadeca-1(11),2(7),3,5,12,14-hexaene-13-carbonitrile] |
| < 100 | O=C1N(CC(F)(F)F)c2ncc(Cl)cc2-c2ccc(Cl)cc2N1c1c(F)cc(NCCNCCO)cc1F [1-48, 4,13-dichloro-10-[2,6-difluoro-4-({2-[(2-hydroxyethyl)amino]ethyl}amino)phenyl]-8-(2,2,2-trifluoroethyl)-6,8,10-triazatricyclo[9.4.0.0^2,7]pentadeca-1(11),2(7),3,5,12,14-hexaen-9-one] |
| < 100 | [2-({2-[(4-{13-cyano-8-ethyl-4-fluoro-9-oxo-6,8,10-triazatricyclo[9.4.0.0^2,7]pentadeca-1(11),2(7),3,5,12,14-hexaen-10-yl}-3,5-difluorophenyl)amino]ethyl}amino)ethyl]urea [1-169] |

Continued, molecule first:

| Molecule | Ki [nM] |
| --- | --- |
| CCN1C(=O)N(c2c(F)cc(N3CC[C@H](N)C3)cc2F)c2cc(C#N)ccc2-c2cc(Cl)cnc21 [1-241, 10-{4-[(3 S)-3-aminopyrrolidin-1-yl]-2,6-difluorophenyl}-4-chloro-8-ethyl-9-oxo-6,8,10-triazatricyclo[9.4.0.0^2,7]pentadeca-1(11),2(7),3,5,12,14-hexaene-13-carbonitrile] | < 100 |
| CCN1C(=O)N(c2c(F)cc(NCCNCCC(=O)O)cc2F)c2cc(Cl)ccc2-c2cc(Cl)cnc21 [1-72, 3-({2-[(4-{4,13-dichloro-8-ethyl-9-oxo-6,8,10-triazatricyclo[9.4.0.0^2,7]pentadeca-1(11),2(7),3,5,12,14-hexaen-10-yl}-3,5-difluorophenyl)amino]ethyl}amino)propanoic acid] | < 100 |
| CCN1C(=O)N(c2c(F)cc(NCCN[C@H]3C[C@H](O)C3)cc2F)c2cc(C#N)ccc2-c2cc(Cl)cnc21 [1-187, 4-chloro-10-{2,6-difluoro-4-[(2-{[(1r,3r)-3-hydroxycyclobutyl]amino}ethyl)amino]phenyl}-8-ethyl-9-oxo-6,8,10-triazatricyclo[9.4.0.0^2,7]pentadeca-1(11),2(7),3,5,12,14-hexaene-13-carbonitrile] | < 100 |
| CCN1C(=O)N(c2c(F)cc(NCCNC)cc2F)c2cc(Cl)ccc2-c2ccc(C)nc21 [3-1, 13-chloro-10-(2,6-difluoro-4-{[2-(methylamino)ethyl]amino}phenyl)-8-ethyl-5-methyl-6,8,10-triazatricyclo[9.4.0.0^2,7]pentadeca-1(11),2(7),3,5,12,14-hexaen-9-one] | < 100 |
| CCN1C(=O)N(c2c(F)cc(NCCNCCO)cc2F)c2cc(Cl)ccc2-c2cc(C#N)ncc21 [3-22, 13-chloro-10-[2,6-difluoro-4-({2-[(2-hydroxyethyl)amino]ethyl}amino)phenyl]-8-ethyl-9-oxo-5,8,10-triazatricyclo[9.4.0.0^2,7]pentadeca-1(11),2(7),3,5,12,14-hexaene-4-carbonitrile] | < 100 |
| CCN1C(=O)N(c2c(F)cc(NCCNCCO)cc2F)c2cc(Cl)ccc2-c2cc(C#N)cnc21 [1-90, 13-chloro-10-[2,6-difluoro-4-({2-[(2-hydroxyethyl)amino]ethyl}amino)phenyl]-8-ethyl-9-oxo-6,8,10-triazatricyclo[9.4.0.0^2,7]pentadeca-1(11),2(7),3,5,12,14-hexaene-4-carbonitrile] | < 100 |
| CCN1C(=O)N(c2c(F)cc(NCCNCCNC(C)=O)cc2F)c2cc(C#N)ccc2-c2cc(Cl)cnc21 [1-168, N-[2-({2-[(4-{4-chloro-13-cyano-8-ethyl-9-oxo-6,8,10-triazatricyclo[9.4.0.0^2,7]pentadeca-1(15),2(7),3,5,11,13-hexaen-10-yl}-3,5-difluorophenyl)amino]ethyl}amino)ethyl]acetamide] | < 100 |
| CNCCNc1cc(F)c(N2C(=O)N(C)c3ncc(F)cc3-c3c(C)cc(C#N)cc32)c(F)c1 [1-111, 10-(2,6-difluoro-4-{[2-(methylamino)ethyl]amino}phenyl)-4-fluoro-8,15-dimethyl-9-oxo-6,8,10-triazatricyclo[9.4.0.0^2,7]pentadeca-1(11),2(7),3,5,12,14-hexaene-13-carbonitrile] | < 100 |
| CCN1C(=O)N(c2c(F)cc(N3CC(N)C3)cc2F)c2cc(Cl)ccc2-c2cc(Cl)cnc21 [1-44, 10-[4-(3-aminoazetidin-1-yl)-2,6-difluorophenyl]-4,13-dichloro-8-ethyl-6,8,10-triazatricyclo[9.4.0.0^2,7]pentadeca-1(11),2(7),3,5,12,14-hexaen-9-one] | < 100 |
| CCN1C(=O)N(c2c(F)cc(NCCNCCNC(=O)NC)cc2F)c2cc(C#N)ccc2-c2cc(F)cnc21 [1-172, 1-[2-({2-[(4-{13-cyano-8-ethyl-4-fluoro-9-oxo-6,8,10-triazatricyclo[9.4.0.0^2,7]pentadeca-1(11),2(7),3,5,12,14-hexaen-10-yl}-3,5-difluorophenyl)amino]ethyl}amino)ethyl]-3-methylurea] | < 100 |
| CCN1C(=O)N(c2c(F)cc(NCCNC)cc2F)c2cc(Cl)cc(C)c2-c2cc(F)cnc21 [1-32, 13-chloro-10-(2,6-difluoro-4-{[2-(methylamino)ethyl]amino}phenyl)-8-ethyl-4-fluoro-15-methyl-6,8,10-triazatricyclo[9.4.0.0^2,7]pentadeca-1(11),2(7),3,5,12,14-hexaen-9-one] | < 100 |
| CCN1C(=O)N(c2c(F)cc(NCCNCCNC(N)=O)cc2F)c2cc(C#N)ccc2-c2cc(Cl)cnc21 [1-140, [2-({2-[(4-{4-chloro-13-cyano-8-ethyl-9-oxo-6,8,10-triazatricyclo[9.4.0.0^2,7]pentadeca-1(11),2(7),3,5,12,14-hexaen-10-yl}-3,5-difluorophenyl)amino]ethyl}amino)ethyl]urea] | < 100 |

From patent publication US20230159532A1, “PARATHYROID HORMONE (PTH) RECEPTOR ANTAGONISTS AND USES THEREOF” (Crinetics Pharmaceuticals, Inc., priority 2021, published 2023)
